Data reported in patent US10329304B2, “Compounds and methods for inhibition of hedgehog signaling and phosphodiesterase” (Vanderbilt University, priority 2014, dated 2019).
“Also recorded” adds a separate entry of the source.

Key:
[1] = system: Gli1 transcription; test: Sufu−/− mouse embryonic fibroblasts qRT-PCR; format: cell-based; details: Gli1 and Ptch1
[2] = system: ptch1 expression; test: Whole mount zebrafish in situ hybridization for ptch1; format: in vivo; details: 2 μM from 4 hpf
Protocol: In situ hybridization was performed as previously described. Zebrafish ptch1 probes were produced as previously described.

[3] = system: PKA activation; test: Immunostaining of autophosphorylated PKA catalytic subunit in NIH3T3 cells; format: cell-based; details: SAG-stimulated NIH3T3 cells, Egm 5 μM, Rolipram 10 μM
Protocol: NIH3T3 cells were plated on Poly-D-Lysine-coated glass coverslips and were cultured at 37° C., 5% CO2 in DMEM medium containing 10% fetal bovine serum until reaching 75% confluency. For one set of experiments, cells were then transfected with VSV-tagged PDE4D3 plasmid (gift from Miles Houslay, University of Glasgow, Scotland, UK) using Fugene6 transfection reagent (Roche, Indianapolis, Ind.) per manufacturer's protocol. Afterward, cell medium was replaced with DMEM/0.5% FBS containing either 5 μM eggmanone or DMSO and incubated overnight at 37° C., 5% CO2. Cells were fixed in 4% PFA at room temperature for 10 minutes prior to permeabilization, blocking, and staining with primary antibodies against Arl13b (gift of Tamary Caspary, Emory University, Atlanta, Ga.) and VSV (AbCam, Cambridge, Mass.). Fluorescent immunocytochemistry was performed using species-specific, secondary antibodies (Jackson Immunoresearch, West Grove, Pa.). For additional immunocytochemistry experiment, cells were treated with 20 nM SAG in the presence or absence of 5 uM Eggmanone. After overnight incubation, cells were washed with PBS, fixed for 10 minutes in 4% PFA, permeabilized 20 minutes at −20C with cold methanol, blocked with PBS/1% BSA, and incubated with primary antibodies to phospho-PKA catalytic domain Thr197 (Cell Signaling, Danvers, Mass.) and then to Arl13b. An additional overnight blocking step using unconjugated rabbit IgG was required between primary antibody incubations since both antibodies were produced in rabbit. Fluorescent conjugated secondary antibodies were used for visualization. Data analysis was performed in part through the use of the VUMC Cell Imaging Shared Resource.
Using ImageJ software (National Institutes of Health, developed by W. Rasband), a region of interest was created using the magic wand tool on Arl13b channel and transposed to the Gli2 channel, and integrated density was measured and reported as arbitrary units (a.u.). For phospho-PKA, using ImageJ, a line selection tool was used to select a line projected through the length of the primary cilia and an equal length beyond. The intensity values were potted and the cumulative florescence (area under the curve) was calculated for three cilia, blindly, for each treatment. These values for cilia and pericilia domain were analyzed by a two tailed students t-test. For correlation analysis, correlation coefficient for intensity of gamma-tubulin and phosphor-PKA were calculated and compared among treatments with students t-test.

Structure (SMILES)	Transcriptional inhibition in the Sufu−/− cell line, in words [1]	Hh-responsive ptch1 expression in embryos [2]	PKA activation (phospho-PKA-C staining), spatial distribution [3]	PKA activation (phospho-PKA-C staining), spatial distribution ([3]; listed as eggmanone)	PKA activation (phospho-PKA-C staining), spatial distribution ([3]; listed as Egm)
CCCn1c(SCC(=O)c2cccs2)nc2sc3c(c2c1=O)CCCC3 [Formula 9e]	general ability to inhibit transcriptional activity				
C=C(C)Cn1c(SCC(=O)c2cccs2)nc2sc3c(c2c1=O)CCCC3 [Eggmanone, 3-(2-methylallyl)-2-((2-oxo-2-(thiophen-2-yl)ethyl)thio)-5,6,7,8-tetrahydrobenzo[4,5]thieno[2,3-d]pyrimidine-4(3H)-one]		abrogated the expression of the Hh target gene patched-1 (ptch1)	significantly increased the intensity of PKA activation almost exclusively at the basal body	significantly increased the intensity of PKA activation almost exclusively in the basal body	
C=C(C)Cn1c(SCC(=O)c2cccs2)nc2sc3c(c2c1=O)CCCC3 [EGM, Eggmanone]		abolished Hh-responsive ptch1 expression in adaxial cells; also recorded: abolished Hh-responsive ptc1 expression in adaxial cells; also recorded: abolished Hh-responsive ptch1 expression in somites	increases local PKA activation at the base of the primary cilia; also recorded: spatially restricted activation of PKA around the centrosome		increases local PKA activation at the base of the primary cilia; also recorded: increases local PKA activation at the basal body
C=C(C)Cn1c(SCC(=O)c2ccccc2)nc2sc3c(c2c1=O)CCCC3 [Formula 9g]	general ability to inhibit transcriptional activity				
